Earlier results, collected in patent US9180191B2, “Treatment of suicidal ideation or behavior using inhibitors of nicotinic acetylcholine receptors” (UNIVERSITY OF SOUTH FLORIDA, priority 2009, dated 2015).
Where two headings read alike, the source gives them in different places. Blank lines part the entries; values can stand above or below the compound they belong to.

Columns and labels:
[1] = for risk of neuroleptic malignant syndrome: patients receiving the drug
[2] = for teratogen class: FDA Approved Labeling Text
[3] = major depressive disorder, inadequate response to prior antidepressant, two 6 week studies
[4] = not given; remark: listed apart in the source
[5] = test system: muscarinic cholinergic receptors
[6] = test system: serotonergic, dopaminergic, and a-adrenergic receptors
[7] = not given; remark: listed apart in the source
[8] = test system: physiological response to nicotine; conditions: chronic administration, rodents
[9] = test system: brain-derived neurotrophic factor (BDNF); conditions: in vivo
[10] = not given; remark: listed apart in the source
[11] = bipolar I or II disorder, acute bipolar depression
[12] = schizophrenic patients with persistent ongoing symptoms
[13] = for reducing suicidal ideation versus placebo: week 8 (endpoint), p<0.001
[14] = treatment resistant psychotic bipolar patients, 24 months of observation
[15] = smoking cessation
[16] = clinical trials in schizophrenia
[17] = bipolar I, manic and mixed symptoms

Compound: O=C1CCc2ccc(OCCCCN3CCN(c4cccc(Cl)c4Cl)CC3)cc2N1 [aripiprazole]
most commonly observed side effects ([1]; clinical trials in mood disorders (bipolar I disorder and major depressive disorder)): akathisia, sedation, restlessness, tremor, insomnia, constipation, fatigue, blurred vision and extrapyramidal disorder
risk of neuroleptic malignant syndrome [1]: extremely rare
teratogen class [2]: Class-C teratogen
efficacy versus placebo as adjunctive therapy with antidepressants [3]: superior to placebo
efficacy versus placebo in acute use (bipolar I, manic and mixed symptoms, 3 week trials): rapid and significant advantage compared to placebo
efficacy versus placebo as adjunctive therapy (with lithium or valproate) (bipolar I, manic or mixed state, inadequate improvement on mood stabilizer monotherapy): superior to placebo
profile and tolerability with long-term use (long-term use up to 6 months): favorable profile and tolerability

Compound: O=C([O-])[O-].[Li+].[Li+] [lithium, Lithium carbonate]
fatality rate due to suicide after discontinuing lithium compared to the rate during lithium maintenance ([7]; after discontinuing lithium): 12.6 times higher
incidence of attempted and completed suicide compared to those who did not receive lithium ([7]; long-term lithium treatment): 13 fold lower
effect on suicidality ([7]; recurrent unipolar major depressive disorder and bipolar disorder): consistently reduces suicidality
physiological response to nicotine [8]: decreases their physiological response to nicotine
most commonly observed side effects ([1]; lithium, population not given): tremor, diarrhea, polydipsia, polyuria and nausea
use in pregnancy ([2]; pregnancy): associated with neural tube defects
effect on brain BDNF levels [9]: increase brain BDNF levels

Compound: c1cnc2cc3c(cc2n1)[C@@H]1CNC[C@H]3C1 [varenicline]
risk of suicidality relative to other treatments (i.e., buproprion, Zyban) [15]: increase in the risk of suicidality

Now from value to compound, other results behind:

risk of neuroleptic malignant syndrome [1]: extremely rare
affinity for muscarinic cholinergic receptors [5]: no appreciable affinity
affinity for serotonergic, dopaminergic, and a-adrenergic receptors [6]: high affinity
Compound: CN1CC2c3ccccc3Oc3ccc(Cl)cc3C2C1 (stereo not shown) [asenapine]
most commonly observed side effects [1, 16]: anxiety, somnolence, EPS, dizziness, constipation, nausea, dyspepsia, rhinitis, rash, and tachycardia
teratogen class [2]: Class-C teratogen
efficacy versus olanzapine in extended use [4, 17]: efficacy comparable to olanzapine
efficacy versus placebo in acute use [4, 17]: rapid and significant advantage compared to placebo
efficacy versus placebo as adjunctive therapy ([4]; bipolar patients with inadequate improvement on mood stabilizer monotherapy): superior to placebo
profile and tolerability with long-term use ([4]; long-term use): favorable profile and tolerability

risk of neuroleptic malignant syndrome [1]: extremely rare
Compound: OCCOCCN1CCN(C2=Nc3ccccc3Sc3ccccc32)CC1 [quetiapine]
efficacy versus placebo in combination with divalproex ([10]; adolescent patients with acute bipolar I mania): superior to placebo
efficacy versus placebo in combination with lithium or divalproex ([10]; hospitalized adult patients with acute mania): superior to placebo
efficacy versus placebo as monotherapy in acute bipolar mania ([10]; hospitalized patients with bipolar I disorder, two 12-week trials): superior to placebo
reducing depressive and anxiety symptoms versus placebo [11]: superior to placebo
most commonly observed side effects [1, 16]: anxiety, somnolence, EPS, dizziness, constipation, nausea, dyspepsia, rhinitis, rash, and tachycardia
teratogen class [2]: Class-C teratogen
depressive symptoms versus haloperidol [12]: reduce depressive symptoms more than haloperidol
reducing suicidal ideation versus placebo ([13]; 300 mg/day): more effective than placebo
reducing suicidal ideation versus placebo ([13]; 600 mg/day): more effective than placebo
mean percent reduction in suicidal thoughts ([13]; 542 outpatients, bipolar I and II depression, placebo approximately 30%): approximately 60%
reduction in suicidal ideation relative to placebo, item 10 on the MADRS ([13]; bipolar I and II depression): approximately twice
suicidality [14]: effective in lowering suicidality
